# Results: patent US4020060A, “7-[α-Amino- ω-(3,4-methylenedioxyphenyl)acylamido]cephalosporanic acid derivatives” (Richardson-Merrell Inc., priority 1975, dated 1977)
# Read-outs that look alike come from different tables or passages of the source.
# How the values were obtained:
# Streptococcus pyogenes [1] = experiment: in vivo protection of mice challenged with a fatal bacterial infection; details: 1 and 4 hours after challenge, read-out: dose required per treatment to protect fifty percent of the infected mice (ED50)
# Procedure: (§1) The following example illustrates the in vivo activity of the compounds of this invention.
# (§2) Several groups of 10 mice are challenged with a fatal bacterial infection. Various dose levels of the test compound are administered orally or subcutaneously to separate groups of these animals 1 and 4 hours after challenge. After three or four days, depending upon the test organism, the number of survivors are recorded at each dose level and the dose required per treatment to protect fifty percent of the infected mice (ED50) is calculated by the method described by Reed and Muench, Amer. J. Hyg. 27, 493-497 (1938).
# Diplococcus pneumoniae [2] = experiment: as above; details: Streptococcus pneumoniae, 1 and 4 hours after challenge, read-out: dose required per treatment to protect fifty percent of the infected mice (ED50)
# Procedure: as §1, §2
# [3] = tested on: Salmonella schottmuelleri; experiment: as above; details: sc, subcutaneous, 1 and 4 hours after challenge, read-out: dose required per treatment to protect fifty percent of the infected mice (ED50)
# Procedure: as §1, §2
# Staphylococcus aureus = experiment: in vitro minimal inhibitory concentration, two-fold serial dilutions in trypticase soy broth; format: cell-based; details: 24 hours at 37° C.
# Procedure: (§3) The following example illustrates the in vitro activity of the compounds of this invention.
# (§4) Two-fold serial dilutions of the test compound are made in trypticase soy broth. A series of tubes of both containing different concentrations of the test compound are inoculated with the particular bacterial culture used for in vitro activity. The inoculated tubes are examined for the inhibition of bacterial growth after 24 hours of incubation at 37° C. The following table summarizes the minimal inhibitory concentration (MIC) for the various bacterial cultures tested with the compound 7-[2-amino-2-(3,4-methylenedioxyphenyl)acetamido]desacetoxycephalosporanicacid.
# Escherichia coli = experiment: as above; format: cell-based; details: 24 hours at 37° C.
# Procedure: as §3, §4
# Streptococcus pyogenes [4] = experiment: as above; format: cell-based; details: 24 hours at 37° C.
# Procedure: as §3, §4
# Diplococcus pneumoniae [5] = experiment: as above; format: cell-based; details: Streptococcus pneumoniae, 24 hours at 37° C.
# Procedure: as §3, §4
# [6] = tested on: Salmonella schottmuelleri; experiment: as above; format: cell-based; details: 24 hours at 37° C.
# Procedure: as §3, §4
structure (smiles),measurement,setting,value
"CC1=C(C(=O)O)N2C(=O)C(NC(=O)C(N)c3ccc4c(c3)OCO4)C2SC1 (stereo not shown) [7-[2-Amino-2-(3,4-methylenedioxyphenyl)acetamido] desacetoxycephalosporanic acid]",ED50,"Streptococcus pyogenes [1]; po, per os",1 mg/kg
same,ED50,"Streptococcus pyogenes [1]; sc, subcutaneous",0.9 mg/kg
same,ED50,"Diplococcus pneumoniae [2]; po, per os",45 mg/kg
same,ED50,"Diplococcus pneumoniae [2]; sc, subcutaneous",40 mg/kg
same,ED50,[3],26 mg/kg
same,MIC,Staphylococcus aureus,1.6 µg/mL
same,MIC,Escherichia coli,50 µg/mL
same,MIC,Streptococcus pyogenes [4],0.8 µg/mL
same,MIC,Diplococcus pneumoniae [5],3.1 µg/mL
same,MIC,[6],50 µg/mL
